Measured values taken from PMC5529566, “The cryo-EM structure of gastric H^+,K^+-ATPase with bound BYK99, a high-affinity member of K^+-competitive, imidazo[1,2-a]pyridine inhibitors” (Scientific Reports, 2017).

Assays:
H^+,K^+-ATPase WT = molecular target: T1, H^+,K^+-ATPase WT (Sus scrofa, UniProt P19156); assay: K^+-competitive inhibition of H^+,K^+-ATPase activity, 96-well ATPase assay, wild-type; type: biochemical, pig; details: WT
T1 construct: made in house; host or cells: HEK293S GnT1- cells (BacMam baculovirus transduction); permeabilised membrane fractions

H^+,K^+-ATPase D136A = H^+,K^+-ATPase D136A (Sus scrofa, UniProt P19156, D137A); assay: ATPase assay, D136A mutant
H^+,K^+-ATPase D136L = H^+,K^+-ATPase D136L (Sus scrofa, UniProt P19156, D137L); assay: ATPase assay, D136L mutant
H^+,K^+-ATPase D136I = H^+,K^+-ATPase D136I (Sus scrofa, UniProt P19156, D137I); assay: ATPase assay, D136I mutant
H^+,K^+-ATPase D136F = H^+,K^+-ATPase D136F (Sus scrofa, UniProt P19156, D137F); assay: ATPase assay, D136F mutant
H^+,K^+-ATPase D137A = H^+,K^+-ATPase D137A (Sus scrofa, UniProt P19156, D138A); assay: ATPase assay, D137A mutant
H^+,K^+-ATPase D137L = H^+,K^+-ATPase D137L (Sus scrofa, UniProt P19156, D138L); assay: ATPase assay, D137L mutant
H^+,K^+-ATPase D137I = H^+,K^+-ATPase D137I (Sus scrofa, UniProt P19156, D138I); assay: ATPase assay, D137I mutant
H^+,K^+-ATPase D137I, sequence (P19156 whole entry D138I): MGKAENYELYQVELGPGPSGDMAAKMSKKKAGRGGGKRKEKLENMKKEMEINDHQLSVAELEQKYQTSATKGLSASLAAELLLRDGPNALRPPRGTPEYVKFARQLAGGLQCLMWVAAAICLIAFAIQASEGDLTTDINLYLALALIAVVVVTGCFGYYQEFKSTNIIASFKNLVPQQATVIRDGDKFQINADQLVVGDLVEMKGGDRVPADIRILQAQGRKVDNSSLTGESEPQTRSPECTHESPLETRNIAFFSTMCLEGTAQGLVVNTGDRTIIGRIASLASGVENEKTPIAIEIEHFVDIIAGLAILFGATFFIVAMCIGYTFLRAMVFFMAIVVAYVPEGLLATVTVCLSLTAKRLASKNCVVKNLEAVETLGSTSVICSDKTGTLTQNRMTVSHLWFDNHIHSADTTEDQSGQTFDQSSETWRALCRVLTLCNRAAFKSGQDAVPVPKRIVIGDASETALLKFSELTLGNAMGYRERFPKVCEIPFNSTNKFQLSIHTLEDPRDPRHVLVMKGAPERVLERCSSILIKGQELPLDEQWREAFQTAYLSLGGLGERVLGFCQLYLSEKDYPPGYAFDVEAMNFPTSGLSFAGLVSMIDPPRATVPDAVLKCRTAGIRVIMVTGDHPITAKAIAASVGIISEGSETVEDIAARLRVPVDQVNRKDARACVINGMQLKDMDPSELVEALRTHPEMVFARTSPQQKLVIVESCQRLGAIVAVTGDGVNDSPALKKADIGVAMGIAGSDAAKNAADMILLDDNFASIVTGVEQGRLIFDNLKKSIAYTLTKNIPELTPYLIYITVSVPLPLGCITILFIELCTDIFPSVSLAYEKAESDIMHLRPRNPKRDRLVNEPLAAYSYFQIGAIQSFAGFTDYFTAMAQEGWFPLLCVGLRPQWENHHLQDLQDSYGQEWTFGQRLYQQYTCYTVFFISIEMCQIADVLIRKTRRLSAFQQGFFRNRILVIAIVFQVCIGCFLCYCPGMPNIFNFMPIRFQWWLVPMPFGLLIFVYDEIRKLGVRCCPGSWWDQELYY
H^+,K^+-ATPase D137I, sequence (P18434 whole entry partner): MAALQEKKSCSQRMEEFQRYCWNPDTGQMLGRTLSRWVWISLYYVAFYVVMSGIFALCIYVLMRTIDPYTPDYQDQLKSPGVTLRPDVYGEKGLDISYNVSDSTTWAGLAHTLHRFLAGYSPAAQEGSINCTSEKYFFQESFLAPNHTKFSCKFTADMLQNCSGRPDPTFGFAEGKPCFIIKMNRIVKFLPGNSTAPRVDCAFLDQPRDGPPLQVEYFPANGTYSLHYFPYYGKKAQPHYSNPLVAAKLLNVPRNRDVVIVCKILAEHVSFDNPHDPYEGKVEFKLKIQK

H^+,K^+-ATPase D137F = H^+,K^+-ATPase D137F (Sus scrofa, UniProt P19156, D138F); assay: ATPase assay, D137F mutant
H^+,K^+-ATPase N138A = H^+,K^+-ATPase N138A (Sus scrofa, UniProt P19156, N139A); assay: ATPase assay, N138A mutant
H^+,K^+-ATPase N138L = H^+,K^+-ATPase N138L (Sus scrofa, UniProt P19156, N139L); assay: ATPase assay, N138L mutant
H^+,K^+-ATPase N138I = H^+,K^+-ATPase N138I (Sus scrofa, UniProt P19156, N139I); assay: ATPase assay, N138I mutant
H^+,K^+-ATPase N138F = H^+,K^+-ATPase N138F (Sus scrofa, UniProt P19156, N139F); assay: ATPase assay, N138F mutant
H^+,K^+-ATPase L139A = H^+,K^+-ATPase L139A (Sus scrofa, UniProt P19156, L140A); assay: ATPase assay, L139A mutant
H^+,K^+-ATPase L139A, sequence (P19156 whole entry L140A): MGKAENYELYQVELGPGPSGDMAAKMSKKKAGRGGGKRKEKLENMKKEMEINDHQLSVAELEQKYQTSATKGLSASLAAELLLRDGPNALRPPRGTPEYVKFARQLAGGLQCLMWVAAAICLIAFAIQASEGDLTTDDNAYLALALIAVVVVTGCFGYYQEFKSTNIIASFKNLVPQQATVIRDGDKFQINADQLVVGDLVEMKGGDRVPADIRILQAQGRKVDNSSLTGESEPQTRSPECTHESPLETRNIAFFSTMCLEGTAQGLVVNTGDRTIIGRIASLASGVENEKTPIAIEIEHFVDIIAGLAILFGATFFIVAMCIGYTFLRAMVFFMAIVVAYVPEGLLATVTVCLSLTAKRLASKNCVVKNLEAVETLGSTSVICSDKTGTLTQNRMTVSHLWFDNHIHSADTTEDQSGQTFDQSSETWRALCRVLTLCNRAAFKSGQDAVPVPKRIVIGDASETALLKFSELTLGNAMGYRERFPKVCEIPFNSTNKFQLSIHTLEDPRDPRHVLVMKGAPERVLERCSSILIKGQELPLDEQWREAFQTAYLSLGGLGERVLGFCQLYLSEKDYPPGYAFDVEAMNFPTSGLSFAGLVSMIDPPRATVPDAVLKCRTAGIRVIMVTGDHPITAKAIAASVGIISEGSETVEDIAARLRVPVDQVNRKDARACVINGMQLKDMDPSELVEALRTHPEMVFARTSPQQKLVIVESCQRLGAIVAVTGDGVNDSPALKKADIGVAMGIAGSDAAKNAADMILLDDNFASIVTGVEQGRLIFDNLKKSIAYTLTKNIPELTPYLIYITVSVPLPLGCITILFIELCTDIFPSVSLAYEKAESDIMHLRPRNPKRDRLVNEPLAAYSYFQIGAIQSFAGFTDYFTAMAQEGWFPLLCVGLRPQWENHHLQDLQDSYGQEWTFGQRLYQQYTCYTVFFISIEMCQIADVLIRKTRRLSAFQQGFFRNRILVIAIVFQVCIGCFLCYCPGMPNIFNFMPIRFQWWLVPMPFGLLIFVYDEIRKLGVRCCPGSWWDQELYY
H^+,K^+-ATPase L139A, sequence (P18434 whole entry partner): as the sequence (P18434 whole entry partner) above

H^+,K^+-ATPase L139I = H^+,K^+-ATPase L139I (Sus scrofa, UniProt P19156, L140I); assay: ATPase assay, L139I mutant
H^+,K^+-ATPase L139F = H^+,K^+-ATPase L139F (Sus scrofa, UniProt P19156, L140F); assay: ATPase assay, L139F mutant
H^+,K^+-ATPase Y140A = H^+,K^+-ATPase Y140A (Sus scrofa, UniProt P19156, Y141A); assay: ATPase assay, Y140A mutant
H^+,K^+-ATPase Y140L = H^+,K^+-ATPase Y140L (Sus scrofa, UniProt P19156, Y141L); assay: ATPase assay, Y140L mutant
H^+,K^+-ATPase Y140I = H^+,K^+-ATPase Y140I (Sus scrofa, UniProt P19156, Y141I); assay: ATPase assay, Y140I mutant
H^+,K^+-ATPase Y140I, sequence (P19156 whole entry Y141I): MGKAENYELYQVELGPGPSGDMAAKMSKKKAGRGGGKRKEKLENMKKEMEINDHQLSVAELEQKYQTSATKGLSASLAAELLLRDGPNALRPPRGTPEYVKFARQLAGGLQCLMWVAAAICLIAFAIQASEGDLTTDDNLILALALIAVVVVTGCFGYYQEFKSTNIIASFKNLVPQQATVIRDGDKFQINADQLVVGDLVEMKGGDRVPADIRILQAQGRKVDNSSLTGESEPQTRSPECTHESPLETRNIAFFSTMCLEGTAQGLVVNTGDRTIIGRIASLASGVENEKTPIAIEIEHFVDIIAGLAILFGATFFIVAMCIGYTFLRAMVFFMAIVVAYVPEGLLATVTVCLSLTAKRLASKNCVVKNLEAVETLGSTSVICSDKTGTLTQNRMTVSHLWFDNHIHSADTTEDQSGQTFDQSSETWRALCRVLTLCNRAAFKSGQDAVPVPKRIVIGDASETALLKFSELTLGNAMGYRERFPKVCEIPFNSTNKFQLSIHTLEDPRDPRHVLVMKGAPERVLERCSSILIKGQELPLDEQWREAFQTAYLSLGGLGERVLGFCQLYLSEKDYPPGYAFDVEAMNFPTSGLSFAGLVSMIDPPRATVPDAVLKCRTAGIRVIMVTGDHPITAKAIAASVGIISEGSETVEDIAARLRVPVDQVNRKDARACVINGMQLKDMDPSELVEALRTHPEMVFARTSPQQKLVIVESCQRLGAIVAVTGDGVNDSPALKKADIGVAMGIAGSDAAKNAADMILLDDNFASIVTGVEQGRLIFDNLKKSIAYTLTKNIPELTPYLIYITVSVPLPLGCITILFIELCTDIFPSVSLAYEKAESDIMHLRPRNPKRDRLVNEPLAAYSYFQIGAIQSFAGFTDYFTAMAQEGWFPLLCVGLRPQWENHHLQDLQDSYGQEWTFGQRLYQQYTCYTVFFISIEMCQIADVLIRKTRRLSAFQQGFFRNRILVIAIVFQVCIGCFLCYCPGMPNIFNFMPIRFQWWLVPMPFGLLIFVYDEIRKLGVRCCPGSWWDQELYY
H^+,K^+-ATPase Y140I, sequence (P18434 whole entry partner): as the sequence (P18434 whole entry partner) above

H^+,K^+-ATPase Y140F = H^+,K^+-ATPase Y140F (Sus scrofa, UniProt P19156, Y141F); assay: ATPase assay, Y140F mutant
H^+,K^+-ATPase L141I = H^+,K^+-ATPase L141I (Sus scrofa, UniProt P19156, L142I); assay: ATPase assay, L141I mutant
H^+,K^+-ATPase A335G = H^+,K^+-ATPase A335G (Sus scrofa, UniProt P19156, A336G); assay: ATPase assay, A335G mutant
H^+,K^+-ATPase Y799A = H^+,K^+-ATPase Y799A (Sus scrofa, UniProt P19156, Y800A); assay: ATPase assay, Y799A mutant
H^+,K^+-ATPase Y799A, sequence (P19156 whole entry Y800A): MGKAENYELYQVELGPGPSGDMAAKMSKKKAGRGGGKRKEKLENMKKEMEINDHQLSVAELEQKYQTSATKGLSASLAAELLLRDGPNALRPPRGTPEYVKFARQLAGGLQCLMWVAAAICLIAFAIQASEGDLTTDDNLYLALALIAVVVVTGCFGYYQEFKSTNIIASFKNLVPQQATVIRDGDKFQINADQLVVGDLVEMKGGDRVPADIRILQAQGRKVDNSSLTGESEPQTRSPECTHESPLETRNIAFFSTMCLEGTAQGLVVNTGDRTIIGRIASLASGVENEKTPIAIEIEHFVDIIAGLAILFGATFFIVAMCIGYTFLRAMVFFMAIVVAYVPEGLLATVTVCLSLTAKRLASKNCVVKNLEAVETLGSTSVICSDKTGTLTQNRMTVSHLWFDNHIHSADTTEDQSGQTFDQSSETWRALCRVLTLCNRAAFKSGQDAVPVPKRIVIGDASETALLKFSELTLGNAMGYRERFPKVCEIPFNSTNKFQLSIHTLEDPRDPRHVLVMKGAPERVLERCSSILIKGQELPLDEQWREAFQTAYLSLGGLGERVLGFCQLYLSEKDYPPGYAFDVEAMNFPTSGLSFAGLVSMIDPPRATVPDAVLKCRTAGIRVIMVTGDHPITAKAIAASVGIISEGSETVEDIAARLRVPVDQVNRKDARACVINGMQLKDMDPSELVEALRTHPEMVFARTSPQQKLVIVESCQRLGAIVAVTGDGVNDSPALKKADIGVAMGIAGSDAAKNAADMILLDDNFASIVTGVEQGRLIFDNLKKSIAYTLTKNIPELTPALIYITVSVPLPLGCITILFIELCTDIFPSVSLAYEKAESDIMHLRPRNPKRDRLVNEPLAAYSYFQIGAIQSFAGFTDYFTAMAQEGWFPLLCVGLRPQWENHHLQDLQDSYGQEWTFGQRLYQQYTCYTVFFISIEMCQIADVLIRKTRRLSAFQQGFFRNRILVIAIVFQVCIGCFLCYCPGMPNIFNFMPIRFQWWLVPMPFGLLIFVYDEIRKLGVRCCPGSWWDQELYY
H^+,K^+-ATPase Y799A, sequence (P18434 whole entry partner): as the sequence (P18434 whole entry partner) above

H^+,K^+-ATPase Y799F = H^+,K^+-ATPase Y799F (Sus scrofa, UniProt P19156, Y800F); assay: ATPase assay, Y799F mutant
H^+,K^+-ATPase L809F = H^+,K^+-ATPase L809F (Sus scrofa, UniProt P19156, L810F); assay: ATPase assay, L809F mutant
[1] = molecular target: H^+,K^+-ATPase A335C/C813A (Sus scrofa, UniProt P19156, A336C/C814A); assay: ATPase assay, A335C/C813A mutant
H^+,K^+-ATPase = H^+,K^+-ATPase (Sus scrofa, UniProt P19156); assay: Dose-dependent inhibition of H^+,K^+-ATPase activity in the presence of 10 mM KCl
Protocol: Reactions were initiated by incubating at 37 °C using a thermal cycler, and maintained for 1 to 5 h (depending on the activity). Reactions were terminated by withdrawing 40 μL from the 80 μL reactant, and mixing with 80 μL of stop solution comprising 6% ascorbic acid and 2% ammonium molybdate in 1 N HCl, followed by the addition of 120 μL of 2% sodium arsenate, 2% sodium citrate, and 2% acetic acid. The amount of released inorganic phosphate was determined colorimetrically[39] from absorbance at 850 nm by the microplate reader (TECAN).

-fold increase in K i compared with wild-type (H^+,K^+-ATPase WT): 1.0 fold
Ki (H^+,K^+-ATPase WT; global fitting, mean ± SEM): 11 ± 0.1 µM
Ki (H^+,K^+-ATPase D136A): 11 ± 1 µM
-fold increase in K i compared with wild-type (H^+,K^+-ATPase D136A; D136A): 1.0 fold
Ki (H^+,K^+-ATPase D136L): 5.4 ± 0.5 µM
-fold increase in K i compared with wild-type (H^+,K^+-ATPase D136L; D136L): 0.5 fold
Ki (H^+,K^+-ATPase D136I): 6.8 ± 0.6 µM
-fold increase in K i compared with wild-type (H^+,K^+-ATPase D136I; D136I): 0.6 fold
Ki (H^+,K^+-ATPase D136F): 6.7 ± 0.5 µM
-fold increase in K i compared with wild-type (H^+,K^+-ATPase D136F; D136F): 0.6 fold
Ki (H^+,K^+-ATPase D137A): 61 ± 7 µM
-fold increase in K i compared with wild-type (H^+,K^+-ATPase D137A; D137A): 5.5 fold
Ki (H^+,K^+-ATPase D137L): 270 ± 100 µM
-fold increase in K i compared with wild-type (H^+,K^+-ATPase D137L; D137L): 25 fold
Ki (H^+,K^+-ATPase D137I): 170 ± 40 µM
-fold increase in K i compared with wild-type (H^+,K^+-ATPase D137I; D137I): 16 fold
Ki (H^+,K^+-ATPase D137F): 34 ± 7 µM
-fold increase in K i compared with wild-type (H^+,K^+-ATPase D137F; D137F): 3.1 fold
Ki (H^+,K^+-ATPase N138A): 0.56 ± 0.08 µM
-fold increase in K i compared with wild-type (H^+,K^+-ATPase N138A; N138A): 0.05 fold
Ki (H^+,K^+-ATPase N138L): 23 ± 7 µM
-fold increase in K i compared with wild-type (H^+,K^+-ATPase N138L; N138L): 2.1 fold
Ki (H^+,K^+-ATPase N138I): 0.95 ± 0.23 µM
-fold increase in K i compared with wild-type (H^+,K^+-ATPase N138I; N138I): 0.09 fold
Ki (H^+,K^+-ATPase N138F): 320 ± 300 µM
-fold increase in K i compared with wild-type (H^+,K^+-ATPase N138F; N138F): 29 fold
Ki (H^+,K^+-ATPase L139A): 8.7 ± 0.7 µM
-fold increase in K i compared with wild-type (H^+,K^+-ATPase L139A; L139A): 0.8 fold
Ki (H^+,K^+-ATPase L139I): 2.3 ± 0.3 µM
-fold increase in K i compared with wild-type (H^+,K^+-ATPase L139I; L139I): 0.2 fold
Ki (H^+,K^+-ATPase L139F): 13 ± 1 µM
-fold increase in K i compared with wild-type (H^+,K^+-ATPase L139F; L139F): 1.2 fold
Ki (H^+,K^+-ATPase Y140A): 13 ± 1 µM
-fold increase in K i compared with wild-type (H^+,K^+-ATPase Y140A; Y140A): 1.2 fold
Ki (H^+,K^+-ATPase Y140L): 3.7 ± 0.4 µM
-fold increase in K i compared with wild-type (H^+,K^+-ATPase Y140L; Y140L): 0.3 fold
Ki (H^+,K^+-ATPase Y140I): 5 ± 0.8 µM
-fold increase in K i compared with wild-type (H^+,K^+-ATPase Y140I; Y140I): 0.5 fold
Ki (H^+,K^+-ATPase Y140F): 21 ± 3 µM
-fold increase in K i compared with wild-type (H^+,K^+-ATPase Y140F; Y140F): 1.9 fold
Ki (H^+,K^+-ATPase L141I): 7.3 ± 0.8 µM
-fold increase in K i compared with wild-type (H^+,K^+-ATPase L141I; L141I): 0.7 fold
Ki (H^+,K^+-ATPase A335G): 1.6 ± 0.2 µM
-fold increase in K i compared with wild-type (H^+,K^+-ATPase A335G; A335G): 0.15 fold
Ki (H^+,K^+-ATPase Y799A): 740 ± 170 µM
-fold increase in K i compared with wild-type (H^+,K^+-ATPase Y799A; Y799A): 67 fold
Ki (H^+,K^+-ATPase Y799F): 31 ± 3 µM
-fold increase in K i compared with wild-type (H^+,K^+-ATPase Y799F; Y799F): 2.8 fold
Ki (H^+,K^+-ATPase L809F): 110 ± 20 µM
-fold increase in K i compared with wild-type (H^+,K^+-ATPase L809F; L809F): 10 fold
Ki [1]: 4200 ± 2300 µM
-fold increase in K i compared with wild-type ([1]; A335C/C813A): 382 fold
IC50 (H^+,K^+-ATPase): 54 µM
SMILES: N#CCc1cnc2c(OCc3ccccc3)cccn12 [SCH-Me^−]
